This note sets out measurements from patent US5013743A, “Selective antibacterial agent against campytobacter” (Takeda Chemical Industries, Ltd., priority 1989, dated 1991).

For assay [1], the system named is C. pylori CLO 6. Briefly: MIC, agar-plate dilution method, test strain G. The class given is cell-based. The conditions noted are these: Helicobacter pylori, CLO6, 72 h, Brucella agar, 37° C., 3 days. As to the method:
(§1) The minimum inhibitory concentration (MIC) of each compound was determined by the agar-plate dilution method based on the standard method advocated by Japan Society of Chemotherapy [cf: Chemotherapy, Jan. '81, p. 76]. The volume of agar medium per plate was 20 ml. Each of the test compounds was dissolved in dimethylsulfoxide at a concentration of 80 mg/ml or 40 mg/ml, and diluted 10 times with sterile distilled water. Furthermore, the aqueous solution of 8 mg/ml or 4 mg/ml was diluted serially 2-fold with sterile distilled water. To 2 ml of the diluted solution was added 18 ml of Brucella agar (BBL Microbiology Systems, Becton Dickinson and Co., Cockeysville, Md. 21030) containing 7% defibrinated horse blood (manufactured by Nippon Bio-supp. Center) and mixed well. Test strains frozen at -80° C. in Brucella broth (BBL) containing 10% horse serum were thawed and inoculated on a Brucella agar slant medium containing 7% defibrinated horse blood. The medium was incubated anaerobically at 37° C. for 3 days in a jar containing a piece of sponge sufficiently impregnated with water and Campy Pak™ (BBL). The organisms grown on the slant medium were collected and suspended in a Brucella broth to correspond to the turbidity of about 10^8 CFU/ml of common bacteria. One platinum loop of inoculum was streaked on the medium plates for determination. The plates were incubated under the same conditions as described above.

Assay [2] concerns C. pylori NCTC 11637. Briefly: MIC, agar-plate dilution method, test strain B. The class given is cell-based. The following applies: Helicobacter pylori, NCTC11637, 72 h, Brucella agar, 37° C., 3 days. As to the method: as §1
For assay [3], the system named is C. pylori KS 13. The assay can be described thus: MIC, agar-plate dilution method, test strain E. The conditions noted are these: Helicobacter pylori, KS13, 72 h, Brucella agar, 37° C., 3 days. The class given is cell-based. As to the method:
as §1

The test system of assay [4] is C. pylori CPY 00111. The assay can be described thus: MIC, agar-plate dilution method, test strain D. In kind it is cell-based. The following applies: Helicobacter pylori, CPY00111, 72 h, Brucella agar, 37° C., 3 days. The method, then: as §1
Assay [5] has as its system C. pylori CLO 1. Briefly: MIC, agar-plate dilution method, test strain F. The conditions noted are these: Helicobacter pylori, CLO1, 72 h, Brucella agar, 37° C., 3 days. In kind it is cell-based. The method, then:
as §1

In assay [6] the test system is C. pylori PCL 56. Briefly: MIC, agar-plate dilution method, test strain C. The class given is cell-based. The conditions noted are these: Helicobacter pylori, PCL56, 72 h, Brucella agar, 37° C., 3 days. The method, then:
as §1, with “above. […] The results are shown in Table 2 and Table 3. | C: C. pylori PCL 56” for “above.”

In assay [7] the test system is C. pylori NCTC 11916. The assay can be described thus: MIC, agar-plate dilution method, test strain A. In kind it is cell-based. The following applies: Helicobacter pylori, NCTC11916, 72 h, Brucella agar, 37° C., 3 days. As to the method: as §1
Assay [8] relates to genus Campylobacter. Briefly: Antibacterial activity against the genus Campylobacter (Tables 2 and 3, summary in words). The class given is cell-based, Campylobacter pylori. The following applies: fluorinated alkyl derivatives vs other derivatives, Table 2 and Table 3. As to the method:
as §1

Converted amounts (≈) assume the structure as drawn.

Take `C=CCOc1ccnc(CSc2nc3cc(C(F)(F)F)ccc3[nH]2)c1` [Compound 10]: the MIC in assay [1], in assay [2], in assay [3], in assay [4], in assay [5] and in assay [6] was 25 µg/mL (≈ 68.4 µM) in each case. Further, the MIC in assay [7] was 25 µg/mL (≈ 68.4 µM).
Consider `CC(C)Oc1ccnc(CSc2nc3cc(C(F)(F)F)ccc3[nH]2)c1` [Compound 9], for which the minimum inhibitory concentration (MIC) in assay [1], in assay [2], in assay [3], in assay [4], in assay [5] and in assay [6] was 12.5 µg/mL (≈ 34 µM) in each case. In assay [7], the MIC was found to be 12.5 µg/mL (≈ 34 µM).
With `CC(C)COc1ccnc(CSc2nc3cc(C(F)(F)F)ccc3[nH]2)c1` [Compound 8], the MIC in assay [1], in assay [2], in assay [3], in assay [4], in assay [5] and in assay [6] was 12.5 µg/mL (≈ 32.8 µM) each time. This compound also came in with an MIC in assay [7] of 12.5 µg/mL (≈ 32.8 µM).
As for `Cc1c(OCC(F)(F)C(F)F)ccnc1CSc1nc2ccccc2[nH]1` [Compound 12], the MIC in assay [1] came to 0.78 µg/mL (≈ 2.02 µM); in assay [2], 0.78 µg/mL (≈ 2.02 µM); in assay [3], 1.56 µg/mL (≈ 4.05 µM); in assay [4], 1.56 µg/mL (≈ 4.05 µM); in assay [5], 1.56 µg/mL (≈ 4.05 µM); in assay [6], 1.56 µg/mL (≈ 4.05 µM). In assay [7], it took 1.56 µg/mL (≈ 4.05 µM) to inhibit growth (MIC). Moreover, the “antibacterial activity compared with other derivatives” value in assay [8] is on record as “stronger antibacterial activity”.
In the case of `Cc1c(OCC(F)(F)C(F)(F)F)ccnc1C[S+]([O-])c1nc2ccccc2[nH]1` (stereo not shown) [Compound 3], the MIC is 6.25 µg/mL (≈ 14.9 µM) in assay [1]; 6.25 µg/mL (≈ 14.9 µM) in assay [2]; 3.13 µg/mL (≈ 7.46 µM) in assay [3]; 3.13 µg/mL (≈ 7.46 µM) in assay [4]; 1.56 µg/mL (≈ 3.72 µM) in assay [5]; 3.13 µg/mL (≈ 7.46 µM) in assay [6]. In assay [7], this compound came in with an MIC of 3.13 µg/mL (≈ 7.46 µM). In addition, in assay [8], the “antibacterial activity compared with other derivatives” value is reported as “stronger antibacterial activity”.
With `Cc1c(OCC(F)(F)C(F)F)ccnc1C[S+]([O-])c1nc2ccccc2[nH]1` (stereo not shown) [Compound 4], the MIC in assay [1] came out at 6.25 µg/mL (≈ 15.6 µM); in assay [2] it was 6.25 µg/mL (≈ 15.6 µM); in assay [3], 1.56 µg/mL (≈ 3.89 µM); in assay [4], 1.56 µg/mL (≈ 3.89 µM); in assay [5], 0.78 µg/mL (≈ 1.94 µM); in assay [6], 6.25 µg/mL (≈ 15.6 µM). The compound further registered an MIC in assay [7] of 1.56 µg/mL (≈ 3.89 µM). In assay [8], the “antibacterial activity compared with other derivatives” value was “stronger antibacterial activity”.
Consider `CC(C)COc1ccnc(CSc2nc3ccccc3[nH]2)c1` [Compound 7], for which the MIC in assay [1], in assay [2], in assay [3], in assay [4], in assay [5] and in assay [6] was 12.5 µg/mL (≈ 39.9 µM) each time. Also, in assay [7], the MIC stood at 12.5 µg/mL (≈ 39.9 µM).
As to `Cc1c(OCC(F)(F)C(F)(F)F)ccnc1CSc1nc2ccccc2[nH]1` [Compound 13], the minimum inhibitory concentration (MIC) in assay [1], in assay [2], in assay [3], in assay [4], in assay [5] and in assay [6] was 1.56 µg/mL (≈ 3.87 µM) throughout. The same compound gave an MIC in assay [7] of 1.56 µg/mL (≈ 3.87 µM). The “antibacterial activity compared with other derivatives” value in assay [8] was “stronger antibacterial activity”.
With `C#CCOc1ccnc(CSc2nc3cc(C(F)(F)F)ccc3[nH]2)c1` [Compound 11], the MIC in assay [1], in assay [2], in assay [3], in assay [4], in assay [5] and in assay [6] was 12.5 µg/mL (≈ 34.4 µM) each time. Moreover, the lowest concentration to inhibit growth in assay [7] (MIC) was 12.5 µg/mL (≈ 34.4 µM).
